Patent publication US20260226048A1, “MULTI-CYCLIC IRAK AND FLT3 INHIBITING COMPOUNDS AND USES THEREOF” (CHILDREN'S HOSPITAL MEDICAL CENTER, priority 2023, published 2026)

Assays:
[1] = biological target: T1, IRAK1 (Homo sapiens, UniProt P51617); assay: RBC HotSpot Kinase Assay, IRAK1; type: biochemical; details: isolated kinase enzyme, 33P-ATP, P81 filter-binding
T1 construct: purchased Reaction Biology (RBC HotSpot)
In short: (§1)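 Radiometric HotSpot assay of catalytic activity with isolated recombinant kinase, possibly truncated or kinase domain only. Buffer: 20 mM Hepes pH 7.5, 10 mM MgCl2, 1 mM EGTA, 0.01% Brij35, 0.02 mg/ml BSA, 0.1 mM Na3VO4, 2 mM DTT, 1% DMSO, with cofactors specific to each kinase.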

[2] = tested on: MOLM14 D835Y cells; assay: MOLM14 D835Y cell viability assay (Cell Titer Glo); type: cell-based; details: Homo sapiens, MOLM-14, 48 h, cell viability, Cell Titer Glo, 48 hours; read-out: MOLM14 D835Y IC50
In short: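 MOLM14 cells with FLT3 D835Y or F691L kinase-domain resistance mutations seeded at 1000 cells/well and exposed to compound for 48 h under standard incubator conditions. Viability read by CellTiter-Glo luminescence after 15 min at room temperature.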

[3] = tested on: THP1 cells (FLT3 WT); assay: Combination drug screening with venetoclax in THP1 cells (Cell Titre Glo, 10 × 10); type: cell-based; details: for Excess HSA (sum excess HSA score, combination with venetoclax): 10 × 10 dataset, Cell Titre Glo at 48 hours, optimal of 4 dose combinations, negative = synergy; for Concentration needed to decrease the 312.5 nM Venetoclax response to <20%: Cell Titer Glo at 48 hours
Description: These assays were performed using the Cell Titre Glo assay, measured at 48 hours.
A smaller concentration indicates higher potency to synergize with Venetoclax.

[4] = biological target: T2, IRAK4 (Homo sapiens, UniProt Q9NWZ3); assay: RBC HotSpot Kinase Assay, IRAK4; type: biochemical; design: purchased Reaction Biology (RBC HotSpot); details: isolated kinase enzyme, 33P-ATP, P81 filter-binding
T2 sequence (Q9NWZ3 1-460): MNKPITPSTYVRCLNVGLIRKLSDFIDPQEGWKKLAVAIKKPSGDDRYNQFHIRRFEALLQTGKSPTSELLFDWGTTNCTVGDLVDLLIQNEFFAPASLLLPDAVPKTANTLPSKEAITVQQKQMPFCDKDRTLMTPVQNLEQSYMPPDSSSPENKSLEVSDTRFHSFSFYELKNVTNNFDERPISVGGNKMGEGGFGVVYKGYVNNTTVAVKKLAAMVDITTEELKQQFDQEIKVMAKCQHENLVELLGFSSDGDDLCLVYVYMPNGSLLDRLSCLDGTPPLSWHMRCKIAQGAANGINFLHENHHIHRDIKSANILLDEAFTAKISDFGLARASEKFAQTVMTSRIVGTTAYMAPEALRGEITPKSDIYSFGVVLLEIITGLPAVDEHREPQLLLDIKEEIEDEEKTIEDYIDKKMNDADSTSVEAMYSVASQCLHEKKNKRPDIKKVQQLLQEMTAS
In short: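 Radiometric filter-binding activity assay with isolated recombinant kinase (construct may be truncated or catalytic domain only) in 20 mM Hepes pH 7.5, 10 mM MgCl2, 1 mM EGTA, 2 mM DTT, 1% DMSO. Compound preincubated 20 min with kinase/substrate; reaction started with 33P-ATP, run 2 h at room temperature.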

[5] = biological target: T3, FLT3 (Homo sapiens, UniProt P36888); assay: RBC HotSpot Kinase Assay, FLT3; type: biochemical; design: purchased Reaction Biology (RBC HotSpot); details: isolated kinase enzyme, 33P-ATP, P81 filter-binding
T3 sequence (P36888 27-993): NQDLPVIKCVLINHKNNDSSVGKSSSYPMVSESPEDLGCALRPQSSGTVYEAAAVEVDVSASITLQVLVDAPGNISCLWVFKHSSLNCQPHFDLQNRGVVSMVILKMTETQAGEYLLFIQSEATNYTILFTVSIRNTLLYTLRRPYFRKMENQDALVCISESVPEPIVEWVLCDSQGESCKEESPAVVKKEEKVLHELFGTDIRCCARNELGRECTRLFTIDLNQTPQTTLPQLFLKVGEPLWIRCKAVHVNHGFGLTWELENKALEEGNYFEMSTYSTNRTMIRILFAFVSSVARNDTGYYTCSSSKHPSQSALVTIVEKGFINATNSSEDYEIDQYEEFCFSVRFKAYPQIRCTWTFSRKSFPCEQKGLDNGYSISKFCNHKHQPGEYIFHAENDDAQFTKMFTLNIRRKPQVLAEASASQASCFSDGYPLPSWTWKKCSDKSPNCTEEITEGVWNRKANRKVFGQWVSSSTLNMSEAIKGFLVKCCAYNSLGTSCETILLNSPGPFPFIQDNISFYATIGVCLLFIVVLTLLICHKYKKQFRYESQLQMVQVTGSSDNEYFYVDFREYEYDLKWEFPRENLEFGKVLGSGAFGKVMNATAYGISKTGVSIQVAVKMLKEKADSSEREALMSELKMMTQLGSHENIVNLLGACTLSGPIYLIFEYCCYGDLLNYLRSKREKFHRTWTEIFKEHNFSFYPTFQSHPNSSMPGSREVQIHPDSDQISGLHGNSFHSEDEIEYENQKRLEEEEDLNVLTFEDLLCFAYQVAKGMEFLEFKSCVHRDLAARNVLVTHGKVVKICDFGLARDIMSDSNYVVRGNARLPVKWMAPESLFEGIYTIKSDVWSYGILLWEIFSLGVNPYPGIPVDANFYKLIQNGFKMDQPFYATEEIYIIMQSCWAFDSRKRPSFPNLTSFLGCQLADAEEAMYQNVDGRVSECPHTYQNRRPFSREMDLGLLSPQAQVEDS
In short: as §1

T1 sequence (P51617 whole entry): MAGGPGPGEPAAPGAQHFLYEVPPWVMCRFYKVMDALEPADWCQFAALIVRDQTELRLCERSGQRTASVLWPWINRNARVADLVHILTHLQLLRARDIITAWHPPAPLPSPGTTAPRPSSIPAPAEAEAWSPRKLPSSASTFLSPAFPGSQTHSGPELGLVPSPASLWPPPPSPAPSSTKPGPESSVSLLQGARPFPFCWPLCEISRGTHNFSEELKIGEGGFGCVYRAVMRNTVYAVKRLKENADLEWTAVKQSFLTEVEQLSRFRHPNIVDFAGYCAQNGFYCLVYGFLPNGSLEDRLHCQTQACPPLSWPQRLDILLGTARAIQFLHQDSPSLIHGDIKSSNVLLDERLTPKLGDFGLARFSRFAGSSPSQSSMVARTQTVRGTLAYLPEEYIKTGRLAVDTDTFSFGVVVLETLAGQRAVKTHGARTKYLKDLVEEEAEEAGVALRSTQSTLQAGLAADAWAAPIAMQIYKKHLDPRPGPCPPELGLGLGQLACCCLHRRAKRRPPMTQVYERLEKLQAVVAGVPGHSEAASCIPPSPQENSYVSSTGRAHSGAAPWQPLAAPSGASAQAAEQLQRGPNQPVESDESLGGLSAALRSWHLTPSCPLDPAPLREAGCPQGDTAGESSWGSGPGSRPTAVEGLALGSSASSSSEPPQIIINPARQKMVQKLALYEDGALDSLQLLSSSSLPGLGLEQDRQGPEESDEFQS

| SMILES | IC50 [1] | IC50 [2] | Excess HSA (sum excess HSA score, combination with venetoclax) [3] | Concentration needed to decrease the 312.5 nM Venetoclax response to <20% [3] | IC50 [4] | IC50 [5] |
| --- | --- | --- | --- | --- | --- | --- |
| COc1cc2ncc(-c3ccnc(N[C@H]4CNCC[C@@H]4F)n3)n2nc1C1CCC1 [Compound 79a, 4-(6-cyclobutyl-7-methoxyimidazo[1,2-b]pyridazin-3-yl)-N-((3S,4S)-4-fluoropiperidin-3-yl)pyrimidin-2-amine] | 33 nM | 20 nM | −994.9 | 5 µM | 2 nM | < 0.5 nM |
| COc1cc2ncc(-c3nc(N[C@H]4CNCC[C@@H]4F)ncc3F)n2nc1C1COC1 [Compound 92a, 5-fluoro-N-((3S,4S)-4-fluoropiperidin-3-yl)-4-(7-methoxy-6-(oxetan-3-yl)imidazo[1,2-b]pyridazin-3-yl)pyrimidin-2-amine] | 4 nM | 5 nM | −529.2 | 5 µM | < 0.5 nM | < 0.5 nM |
| CC(C)(O)c1cn2c(-c3nc(N[C@H]4CNCC[C@@H]4F)ncc3F)cnc2cn1 [Compound 100a, 2-(3-(5-fluoro-2-(((3S,4S)-4-fluoropiperidin-3-yl)amino)pyrimidin-4-yl)imidazo[1,2-a]pyrazin-6-yl)propan-2-ol] | 24 nM | 90 nM | −1080 | 10 µM | 2 nM | 1 nM |
